Measurements taken from patent US7842808B2, “Anti-migraine spirocycles” (Bristol-Myers Squibb Company, priority 2002, dated 2010).

These molecules were tested against T1, CGRP receptor (SK-N-MC cell membranes) (Homo sapiens, UniProt O60894+Q16602) (assay: CGRP Binding Assay ([125I]-CGRP radioligand binding, SK-N-MC homogenate)). Conditions: displacement of [125I]-CGRP, SK-N-MC homogenate; read-out: CGRP binding IC50.
T1 construct: endogenous in cells; host or cells: SK-N-MC cells (membrane homogenate)
Procedure: Tissue Culture. SK-N-MC cells were grown at 37° C. in 5% CO2 as a monolayer in medium consisting of MEM with Earle's salts and L-glutamine (Gibco) supplemented with 10% fetal bovine serum (Gibco).
Cell Pellets. […] The cells were transferred from plates to polypropylene tubes (16×100 mm) and homogenized using a polytron. Homogenates were centrifuged at 32,000×g for 30 min. The pellets were resuspended in cold hypotonic lysis buffer with 0.1% mammalian protease inhibitor cocktail (Sigma) and assayed for protein concentration. The SK-N-MC homogenate was then aliquoted and stored at −80° C. until needed.
Radioligand Binding Assay. The compounds of invention were solubilized and carried through serial dilutions using 100% DMSO. Aliquots from the compound serial dilutions were further diluted 25 fold into assay buffer (50 mM Tris-Cl pH 7.5, 5 mM MgCl2, 0.005% Triton X-100) and transferred (volume 50 μl) into 96 well assay plates. […] SK-N-MC pellets were thawed, diluted in assay buffer with fresh 0.1% mammalian protease inhibitor cocktail (Sigma), and homogenized again. SK-N-MC homogenate (5 μg/well) was added in a volume of 100 μl. The assay plates were then incubated at room temperature for 2 h. Assays were stopped by addition of excess cold wash buffer (20 mM Tris-Cl pH 7.5, 0.1% BSA) immediately followed by filtration over glass fiber filters (Whatman GF/B) previously soaked in 0.5% PEI. Non-specific binding was defined with 1 μM beta-CGRP. Protein bound radioactivity was determined using a gamma or scintillation counter.

T1 sequence (Q16602 23-461): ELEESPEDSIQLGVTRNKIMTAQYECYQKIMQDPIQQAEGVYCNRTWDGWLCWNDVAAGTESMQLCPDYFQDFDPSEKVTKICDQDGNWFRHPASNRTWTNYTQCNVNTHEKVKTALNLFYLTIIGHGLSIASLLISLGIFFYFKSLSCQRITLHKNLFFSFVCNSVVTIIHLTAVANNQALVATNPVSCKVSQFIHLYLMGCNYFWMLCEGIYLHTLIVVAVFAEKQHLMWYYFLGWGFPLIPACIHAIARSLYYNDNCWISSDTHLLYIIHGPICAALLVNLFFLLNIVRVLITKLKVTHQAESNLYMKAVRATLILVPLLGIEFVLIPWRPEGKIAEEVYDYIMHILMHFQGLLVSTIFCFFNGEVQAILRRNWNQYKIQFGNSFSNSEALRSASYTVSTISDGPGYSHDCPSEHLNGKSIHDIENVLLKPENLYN
T1 sequence (O60894 27-148): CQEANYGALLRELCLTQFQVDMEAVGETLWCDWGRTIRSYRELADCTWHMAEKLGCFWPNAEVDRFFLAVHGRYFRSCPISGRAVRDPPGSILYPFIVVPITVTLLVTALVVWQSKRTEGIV

IC50	Compound
> 1000 nM	O=C(C[C@H](NCc1c[nH]cn1)C(=O)N1CCC(N2CCCCC2)CC1)N1CCC(N2Cc3ccccc3NC2=O)CC1 [Example 98, (L)-1-[1,4′]Bipiperidinyl-1′-yl-2-[(1H-imidazol-4-ylmethyl)-amino]-4-[4-(2-oxo-1,4-dihydro-2H-quinazolin-3-yl)-piperidin-1-yl]-butane-1,4-dione]
> 1000 nM	O=C(C[C@H](NC1CCC(O)CC1)C(=O)N1CCC(N2CCCCC2)CC1)N1CCC(N2Cc3ccccc3NC2=O)CC1 (stereo partly drawn) [Example 97, (L)-1-[1,4′]Bipiperidinyl-1′-yl-2-(4-hydroxy-cyclohexylamino)-4-[4-(2-oxo-1,4-dihydro-2H-quinazolin-3-yl)-piperidin-1-yl]-butane-1,4-dione]
100 to 1000 nM	COc1ccc(OC)c(NC(=O)N[C@@H](CC(=O)N2CCC(N3Cc4ccccc4NC3=O)CC2)C(=O)N2CCC(N3CCCCC3)CC2)c1 [Example 174]
10 to 100 nM	Cc1cc(CC(NC(=O)N2CCC3(CC2)OC(=O)Nc2ccccc23)C(=O)NCc2ccncc2)cc2cn[nH]c12 (racemic) [Example 30, (±)-1′,2′-Dihydro-2′-oxospiro-[4H-3′,1-benzoxazine-4,4′-piperidine-1-carboxylic acid {2-(7-methyl-1H-indazol-5-yl)-1-[(pyridin-4-ylmethyl)-carbamoyl]-ethyl}-amide]
10 to 100 nM	Cc1ccc(NC(=O)N[C@@H](CC(=O)N2CCC(N3Cc4ccccc4NC3=O)CC2)C(=O)N2CCC(N3CCCCC3)CC2)cc1C [Example 158]
100 to 1000 nM	O=C(N[C@@H](CC(=O)N1CCC(N2Cc3ccccc3NC2=O)CC1)C(=O)N1CCC(N2CCCCC2)CC1)[C@@H]1C[C@H]1c1ccccc1 [Example 104]
100 to 1000 nM	O=C(N[C@@H](CC(=O)N1CCC(N2Cc3ccccc3NC2=O)CC1)C(=O)N1CCC(N2CCCCC2)CC1)c1cccc(OC(F)(F)F)c1 [Example 121]
100 to 1000 nM	O=C(N[C@@H](CC(=O)N1CCC(N2Cc3ccccc3NC2=O)CC1)C(=O)N1CCC(N2CCCCC2)CC1)c1ccc([N+](=O)[O-])o1 [Example 124]
100 to 1000 nM	COC(=O)C(CC(=O)N1CCC2(CC1)OC(=O)Nc1ccccc12)Cc1cc(C)c2[nH]ncc2c1 (racemic) [Example 66, (±)-2-(7-Methyl-1H-indazol-5-ylmethyl)-4-oxo-4-[1′,2′-dihydro-2′-oxospiro-[4H-3′,1-benzoxazine-4,4′-piperidinyl]-butyric acid methyl ester]
> 1000 nM	COC(=O)C(Cc1cc(C)c2[nH]ncc2c1)NC(=O)N1CCC2(CC1)OC(=O)Nc1ccccc12 (stereo not drawn) [Example 14, 3-(7-Methyl-1H-indazol-5-yl)-2-(1,2-dihydro-2-oxospiro-4H-3,1-dihydro-benzoxazine-4′4-piperidine-carbonylamino)-propionic acid methyl ester]
100 to 1000 nM	CCCNC(=O)N[C@@H](CC(=O)N1CCC(N2Cc3ccccc3NC2=O)CC1)C(=O)N1CCC(N2CCCCC2)CC1 [Example 183]
100 to 1000 nM	O=C(Nc1ccc(F)cc1F)N[C@@H](CC(=O)N1CCC(N2Cc3ccccc3NC2=O)CC1)C(=O)N1CCC(N2CCCCC2)CC1 [Example 156]
100 to 1000 nM	O=C(Nc1ccc(Cl)c(C(F)(F)F)c1)N[C@@H](CC(=O)N1CCC(N2Cc3ccccc3NC2=O)CC1)C(=O)N1CCC(N2CCCCC2)CC1 [Example 152]
> 1000 nM	CN1CCN(C(=O)C(Cc2ccc3[nH]ncc3c2)NC(=O)N2CCC(N3Cc4ccccc4NC3=O)CC2)CC1 (stereo not drawn) [Example 40k]
100 to 1000 nM	C[C@@H](NC(=O)N[C@@H](CC(=O)N1CCC(N2Cc3ccccc3NC2=O)CC1)C(=O)N1CCC(N2CCCCC2)CC1)c1ccccc1 [Example 198]
100 to 1000 nM	CCOc1ccccc1NC(=O)N[C@@H](CC(=O)N1CCC(N2Cc3ccccc3NC2=O)CC1)C(=O)N1CCC(N2CCCCC2)CC1 [Example 175]
100 to 1000 nM	O=C(N[C@@H](CC(=O)N1CCC(N2Cc3ccccc3NC2=O)CC1)C(=O)N1CCC(N2CCCCC2)CC1)c1cccs1 [Example 116]
100 to 1000 nM	O=C(OCc1ccccc1C(=O)N[C@@H](CC(=O)N1CCC(N2Cc3ccccc3NC2=O)CC1)C(=O)N1CCC(N2CCCCC2)CC1)c1ccccc1 [Example 118]
100 to 1000 nM	CCCN1CCN(C(=O)C(Cc2ccc3[nH]ncc3c2)NC(=O)N2CCC(N3Cc4ccccc4NC3=O)CC2)CC1 (stereo not drawn) [Example 40d]

IC50	Compound
100 to 1000 nM	O=C(Nc1cccc2ccccc12)N[C@@H](CC(=O)N1CCC(N2Cc3ccccc3NC2=O)CC1)C(=O)N1CCC(N2CCCCC2)CC1 [Example 137]
100 to 1000 nM	O=C(Nc1ccccc1)N[C@@H](CC(=O)N1CCC(N2Cc3ccccc3NC2=O)CC1)C(=O)N1CCC(N2CCCCC2)CC1 [Example 143]
100 to 1000 nM	O=C(NCCc1cccs1)N[C@@H](CC(=O)N1CCC(N2Cc3ccccc3NC2=O)CC1)C(=O)N1CCC(N2CCCCC2)CC1 [Example 169]
100 to 1000 nM	Cc1cc(CC(NC(=O)N2CCC3(CC2)CC(=O)Nc2ccccc23)C(=O)N2CCCCC2)cc2cn[nH]c12 (racemic) [Example 32, (±)-1-(7-Methyl-1H-indazol-5-ylmethyl)-2-[1-piperidinyl]-2-oxoethyl]3′,4′-dihydro-2′-oxospiro-[piperidine-4,4′-(1H)-quinoline]-1-carboxamide]
> 1000 nM	O=C(NC(Cc1ccc2[nH]ncc2c1)C(=O)N1CCN(Cc2ccco2)CC1)N1CCC(N2Cc3ccccc3NC2=O)CC1 (stereo not drawn) [Example 40e]
100 to 1000 nM	O=C(Nc1ccc(C(F)(F)F)cc1)N[C@@H](CC(=O)N1CCC(N2Cc3ccccc3NC2=O)CC1)C(=O)N1CCC(N2CCCCC2)CC1 [Example 160]
100 to 1000 nM	Cc1cccc(CN[C@@H](CC(=O)N2CCC(N3Cc4ccccc4NC3=O)CC2)C(=O)N2CCC(N3CCCCC3)CC2)c1 [Example 95, (L)-1-[1,4′]Bipiperidinyl-1′-yl-2-((3′-methyl-phenyll)-methyl-amino)-4-[4-(2-oxo-1,4-dihydro-2H-quinazolin-3-yl)-piperidin-1-yl]-butane-1,4-dione]
100 to 1000 nM	O=C(Nc1cc(Cl)ccc1Cl)N[C@@H](CC(=O)N1CCC(N2Cc3ccccc3NC2=O)CC1)C(=O)N1CCC(N2CCCCC2)CC1 [Example 173]
100 to 1000 nM	COc1ccc(NC(=O)N[C@@H](CC(=O)N2CCC(N3Cc4ccccc4NC3=O)CC2)C(=O)N2CCC(N3CCCCC3)CC2)c(OC)c1 [Example 155]
10 to 100 nM	O=C(Nc1cccc(Br)c1)N[C@@H](CC(=O)N1CCC(N2Cc3ccccc3NC2=O)CC1)C(=O)N1CCC(N2CCCCC2)CC1 [Example 176]
100 to 1000 nM	O=C(Nc1ccccc1-c1ccccc1)N[C@@H](CC(=O)N1CCC(N2Cc3ccccc3NC2=O)CC1)C(=O)N1CCC(N2CCCCC2)CC1 [Example 197]
100 to 1000 nM	COc1ccc(NC(=O)N[C@@H](CC(=O)N2CCC(N3Cc4ccccc4NC3=O)CC2)C(=O)N2CCC(N3CCCCC3)CC2)cc1 [Example 181]
100 to 1000 nM	CC(C)c1ccc(NC(=O)N[C@@H](CC(=O)N2CCC(N3Cc4ccccc4NC3=O)CC2)C(=O)N2CCC(N3CCCCC3)CC2)cc1 [Example 162]
100 to 1000 nM	COc1cc(NC(=O)N[C@@H](CC(=O)N2CCC(N3Cc4ccccc4NC3=O)CC2)C(=O)N2CCC(N3CCCCC3)CC2)cc(OC)c1 [Example 165]
10 to 100 nM	CC(NC(=O)N[C@@H](CC(=O)N1CCC(N2Cc3ccccc3NC2=O)CC1)C(=O)N1CCC(N2CCCCC2)CC1)c1cccc2ccccc12 (stereo partly drawn) [Example 199]
10 to 100 nM	Cc1cc(CC(NC(=O)N2CCC(N3Cc4ccccc4NC3=O)CC2)C(=O)OC2CCCCC2)cc2cn[nH]c12 (stereo not drawn) [Example 41a, 3-(7-Methyl-1H-indazol-5-yl)-2-{[4-(2-oxo-1,4-dihydro-2H-quinazolin-3-yl)-piperidine-1-carbonyl]-amino}-propionic acid cyclohexyl ester]
10 to 100 nM	O=C(Nc1ccc(Cl)cc1Cl)N[C@@H](CC(=O)N1CCC(N2Cc3ccccc3NC2=O)CC1)C(=O)N1CCC(N2CCCCC2)CC1 [Example 161]
100 to 1000 nM	Cc1ccccc1NC(=O)N[C@@H](CC(=O)N1CCC(N2Cc3ccccc3NC2=O)CC1)C(=O)N1CCC(N2CCCCC2)CC1 [Example 141]
100 to 1000 nM	O=C(C[C@H](NCc1ccccn1)C(=O)N1CCC(N2CCCCC2)CC1)N1CCC(N2Cc3ccccc3NC2=O)CC1 [Example 93, (L)-1-[1,4′]Bipiperidinyl-1′-yl-2-((2′-pyridyl)-methyl-amino)-4-[4-(2-oxo-1,4-dihydro-2H-quinazolin-3-yl)-piperidin-1-yl]-butane-1,4-dione]

Compound	IC50
COc1ccc(OC(=O)N[C@@H](CC(=O)N2CCC(N3Cc4ccccc4NC3=O)CC2)C(=O)N2CCC(N3CCCCC3)CC2)cc1 [Example 134]	100 to 1000 nM
O=C(N[C@@H](CC(=O)N1CCC(N2Cc3ccccc3NC2=O)CC1)C(=O)N1CCC(N2CCCCC2)CC1)Oc1ccc(F)cc1 [Example 131]	100 to 1000 nM
Cc1ccc(OC(=O)N[C@@H](CC(=O)N2CCC(N3Cc4ccccc4NC3=O)CC2)C(=O)N2CCC(N3CCCCC3)CC2)cc1 [Example 132]	100 to 1000 nM
O=C(N[C@@H](CC(=O)N1CCC(N2Cc3ccccc3NC2=O)CC1)C(=O)N1CCC(N2CCCCC2)CC1)Oc1ccc(Br)cc1 [Example 133]	100 to 1000 nM
